Reference: ChEMBL document CHEMBL4411296, “Design and development of Isatin-triazole hydrazones as potential inhibitors of microtubule affinity-regulating kinase 4 for the therapeutic management of cell proliferation and metastasis” (Eur J Med Chem, 2019)

Tests used:
Format in all cases: functional
HL-60(TB) = test: Growth inhibition of human HL-60(TB) cells assessed as cell growth at 10 uM after 48 hrs by sulforhodamine B assay relative to control; conditions: HL-60, 48 h, read-out: Activity
HOP-92 = test: Growth inhibition of human HOP92 cells assessed as cell growth at 10 uM after 48 hrs by sulforhodamine B assay relative to control; conditions: HOP-92, 48 h, read-out: Activity
NCI-H23 = test: Growth inhibition of human NCI-H23 cells assessed as cell growth at 10 uM after 48 hrs by sulforhodamine B assay relative to control; conditions: NCI-H23, 48 h, read-out: Activity
HCC 2998 = test: Growth inhibition of human HCC2998 cells assessed as cell growth at 10 uM after 48 hrs by sulforhodamine B assay relative to control; conditions: HCC 2998, 48 h, read-out: Activity
HCT-116 = test: Growth inhibition of human HCT116 cells assessed as cell growth at 10 uM after 48 hrs by sulforhodamine B assay relative to control; conditions: HCT-116, 48 h, read-out: Activity
HCT-15 = test: Growth inhibition of human HCT15 cells assessed as cell growth at 10 uM after 48 hrs by sulforhodamine B assay relative to control; conditions: HCT-15, 48 h, read-out: Activity
HT-29 = test: Growth inhibition of human HT-29 cells assessed as cell growth at 10 uM after 48 hrs by sulforhodamine B assay relative to control; conditions: HT-29, 48 h, read-out: Activity
KM12 = test: Growth inhibition of human KM12 cells assessed as cell growth at 10 uM after 48 hrs by sulforhodamine B assay relative to control; conditions: KM12, 48 h, read-out: Activity
SF-295 = test: Growth inhibition of human SF295 cells assessed as cell growth at 10 uM after 48 hrs by sulforhodamine B assay relative to control; conditions: SF-295, 48 h, read-out: Activity
SNB-75 = test: Growth inhibition of human SNB75 cells assessed as cell growth at 10 uM after 48 hrs by sulforhodamine B assay relative to control; conditions: SNB-75, 48 h, read-out: Activity
U-251 = test: Growth inhibition of human U251 cells assessed as cell growth at 10 uM after 48 hrs by sulforhodamine B assay relative to control; conditions: U-251, 48 h, read-out: Activity
M14 = test: Growth inhibition of human M14 cells assessed as cell growth at 10 uM after 48 hrs by sulforhodamine B assay relative to control; conditions: M14, 48 h, read-out: Activity
MDA-MB-435 = test: Growth inhibition of human MDA-MB-435 cells assessed as cell growth at 10 uM after 48 hrs by sulforhodamine B assay relative to control; conditions: MDA-MB-435, 48 h, read-out: Activity
SK-MEL-2 = test: Growth inhibition of human SK-MEL-2 cells assessed as cell growth at 10 uM after 48 hrs by sulforhodamine B assay relative to control; conditions: SK-MEL-2, 48 h, read-out: Activity
UACC-257 = test: Growth inhibition of human UACC257 cells assessed as cell growth at 10 uM after 48 hrs by sulforhodamine B assay relative to control; conditions: UACC-257, 48 h, read-out: Activity
IGROV-1 = test: Growth inhibition of human IGROV1 cells assessed as cell growth at 10 uM after 48 hrs by sulforhodamine B assay relative to control; conditions: IGROV-1, 48 h, read-out: Activity
OVCAR-4 = test: Growth inhibition of human OVCAR4 cells assessed as cell growth at 10 uM after 48 hrs by sulforhodamine B assay relative to control; conditions: OVCAR-4, 48 h, read-out: Activity
OVCAR-8 = test: Growth inhibition of human OVCAR8 cells assessed as cell growth at 10 uM after 48 hrs by sulforhodamine B assay relative to control; conditions: OVCAR-8, 48 h, read-out: Activity
A498 = test: Growth inhibition of human A498 cells assessed as cell growth at 10 uM after 48 hrs by sulforhodamine B assay relative to control; conditions: A498, 48 h, read-out: Activity
SN12C = test: Growth inhibition of human SN12C cells assessed as cell growth at 10 uM after 48 hrs by sulforhodamine B assay relative to control; conditions: read-out: Activity
UO-31 = test: Growth inhibition of human UO31 cells assessed as cell growth at 10 uM after 48 hrs by sulforhodamine B assay relative to control; conditions: UO-31, 48 h, read-out: Activity
PC-3 = test: Growth inhibition of human PC3 cells assessed as cell growth at 10 uM after 48 hrs by sulforhodamine B assay relative to control; conditions: PC-3, 48 h, read-out: Activity
DU-145 = test: Growth inhibition of human DU145 cells assessed as cell growth at 10 uM after 48 hrs by sulforhodamine B assay relative to control; conditions: DU-145, 48 h, read-out: Activity
MCF7 = test: Growth inhibition of human MCF7 cells assessed as cell growth at 10 uM after 48 hrs by sulforhodamine B assay relative to control; conditions: MCF7, 48 h, read-out: Activity
MDA-MB-231 = test: Growth inhibition of human MDA-MB-231 cells assessed as cell growth at 10 uM after 48 hrs by sulforhodamine B assay relative to control; conditions: MDA-MB-231, 48 h, read-out: Activity
MDA-MB-468 = test: Growth inhibition of human MDA-MB-468 cells assessed as cell growth at 10 uM after 48 hrs by sulforhodamine B assay relative to control; conditions: MDA-MB-468, 48 h, read-out: Activity

SMILES	growth at 10 µM (HL-60(TB))	growth at 10 µM (HOP-92)	growth at 10 µM (NCI-H23)	growth at 10 µM (HCC 2998)	growth at 10 µM (HCT-116)	growth at 10 µM (HCT-15)	growth at 10 µM (HT-29)	growth at 10 µM (KM12)	growth at 10 µM (SNB-75)	growth at 10 µM (U-251)	growth at 10 µM (M14)	growth at 10 µM (MDA-MB-435)	growth at 10 µM (SK-MEL-2)	growth at 10 µM (UACC-257)	growth at 10 µM (IGROV-1)	growth at 10 µM (OVCAR-4)	growth at 10 µM (OVCAR-8)	growth at 10 µM (A498)	growth at 10 µM (SN12C)	growth at 10 µM (UO-31)	other results
COc1ccc(Cn2cc(C(=O)N/N=C3/C(=O)Nc4ccc(Cl)cc43)nn2)cc1	93.2%	116%	104%	107%	107%	109%	93.7%	97.7%	115%	107%	110%	104%	99%	113%	106%	100%	105%	96.6%	101%	90.7%	growth at 10 µM (SF-295): 108%; growth at 10 µM (PC-3): 94.9%; growth at 10 µM (DU-145): 102%; growth at 10 µM (MCF7): 91.5%; growth at 10 µM (MDA-MB-231): 113%; growth at 10 µM (MDA-MB-468): 97.2%
COc1ccc(Cn2cc(C(=O)N/N=C3/C(=O)Nc4c(Cl)cccc43)nn2)cc1	97.3%	105%	99.3%	99.3%	91.6%	107%	97%	107%	82%	102%	106%	101%	93.2%	92.9%	103%	104%	97.4%	93.8%	95.8%	93.5%	growth at 10 µM (SF-295): 109%; growth at 10 µM (PC-3): 96.7%; growth at 10 µM (DU-145): 105%; growth at 10 µM (MCF7): 84.3%; growth at 10 µM (MDA-MB-231): 98.5%; growth at 10 µM (MDA-MB-468): 98.6%
COc1ccc(Cn2cc(C(=O)N/N=C3/C(=O)Nc4ccccc43)nn2)cc1	93.3%	112%	103%	110%	109%	105%	99.2%	101%	95.3%	92.2%	103%	100%	94.8%	102%	97.5%	108%	97.8%	96%	96.3%	84.8%	growth at 10 µM (SF-295): 103%; growth at 10 µM (PC-3): 103%; growth at 10 µM (DU-145): 104%; growth at 10 µM (MCF7): 96.5%; growth at 10 µM (MDA-MB-231): 101%; growth at 10 µM (MDA-MB-468): 99%
COc1ccc(Cn2cc(C(=O)N/N=C3/C(=O)Nc4ccc(Br)cc43)nn2)cc1	85.2%	114%	102%	98.5%	77%	105%	88.5%	104%	112%	105%	111%	101%	98%	102%	105%	105%	99.2%	97.1%	102%	91.5%	growth at 10 µM (SF-295): 95.8%; growth at 10 µM (PC-3): 99.8%; growth at 10 µM (DU-145): 93.7%; growth at 10 µM (MCF7): 86.3%; growth at 10 µM (MDA-MB-231): 108%; growth at 10 µM (MDA-MB-468): 96.8%
COc1ccc(Cn2cc(C(=O)N/N=C3/C(=O)Nc4ccc(F)c(Cl)c43)nn2)cc1	78.7%	129%	98%	104%	109%	113%	98%	101%	103%	103%	107%	99.3%	95.6%	100%	110%	104%	99.2%	91.3%	103%	92.4%	growth at 10 µM (PC-3): 105%; growth at 10 µM (DU-145): 96.6%; growth at 10 µM (MCF7): 91.8%; growth at 10 µM (MDA-MB-231): 109%; growth at 10 µM (MDA-MB-468): 108%
COc1ccc(Cn2cc(C(=O)N/N=C3/C(=O)Nc4ccc(F)cc43)nn2)cc1	101%	98.8%	99.5%	99.3%	108%	103%	91.8%	95.8%	104%	99.9%	111%	103%	109%	91%	101%	101%	98.7%	83.4%	94.6%	93.2%	growth at 10 µM (SF-295): 95.4%; growth at 10 µM (PC-3): 98.4%; growth at 10 µM (DU-145): 103%; growth at 10 µM (MCF7): 89.5%; growth at 10 µM (MDA-MB-231): 106%; growth at 10 µM (MDA-MB-468): 87.8%
COc1ccc(Cn2cc(C(=O)N/N=C3/C(=O)Nc4ccc(C)cc43)nn2)cc1	84.8%	121%	104%	99.9%	122%	111%	87.1%	95.4%	110%	105%	109%	101%	92.9%	101%	109%	104%	104%	91.6%	98.4%	95%	growth at 10 µM (SF-295): 111%; growth at 10 µM (PC-3): 97.3%; growth at 10 µM (DU-145): 96%; growth at 10 µM (MCF7): 89.2%; growth at 10 µM (MDA-MB-231): 110%; growth at 10 µM (MDA-MB-468): 99.2%
COc1ccc(Cn2cc(C(=O)N/N=C3/C(=O)Nc4c(F)cccc43)nn2)cc1	90.7%	83.8%	90.1%	102%	63.7%	99.5%	86.5%	101%	90.1%	94.6%	101%	102%	93.3%	88.7%	91.1%	61.5%	85.5%	113%	94.8%	77%	growth at 10 µM (SF-295): 98%; growth at 10 µM (PC-3): 83.3%; growth at 10 µM (DU-145): 102%; growth at 10 µM (MCF7): 94.1%; growth at 10 µM (MDA-MB-231): 96.3%; growth at 10 µM (MDA-MB-468): 89.6%
